According to patent US20060110456A1, “Method for biocidal and/or biostatic treatment and compositions therefor” (NATIONAL UNIVERSITY OF SINGAPORE, priority 2004, published 2006):
Counter-ions that a name gives are not always drawn.

How the values were obtained:
Format in all cases: cell-based, marine bacteria isolated from Singapore fouling communities
[1] = test system: marine bacteria (26 strains); experiment: Disk inhibition assay
Procedure, shortened: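 Tablets or capsule powders suspended in sterile water at 2 mg ml^−1 and loaded onto disks; antibiotic discs (Amp, Ery, Str, Tet) served as comparison. Disks placed on swabbed lawns on Marine Agar, incubated overnight in the dark at 30° C. Zone of clearing diameter measured by calipers; three replicates on three occasions.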

[2] = test system: marine bacteria (ten strains); experiment: Bio-adhesion assay (crystal violet microplate); settings: 50 μl of 125 μg ml^−1 drug + 200 μl bacteria, 2 hours
Experimental: The effect of pharmaceuticals on bacterial adhesion was analyzed using a modified microplate method adapted from Shea and Williamson (1990). This method consists of staining the attached bacteria with crystal violet, releasing the stain with sodium desoxycholate, and measuring the resulting absorbance of the crystal violet. The absorbance is proportional to the degree of bacterial adhesion to the surface.
Ten strains of bacteria (strain numbers 1, 4, 9, 14, 18, 20, 27, 28, 29 and 30) were chosen for this study. Flat bottom non-tissue culture treated polystyrene (hydrophobic, Falcon #351172) (referred to as polystyrene) and flat bottom tissue culture treated polystyrene (hydrophilic, Falcon #353072) microplates were used in the analyses. These two types of plates were chosen because they were sterile and offered two different kinds of surfaces to determine the adhesion preferences of the bacteria. Each test was done in duplicate. For the control and blank wells, 50 μl of sterile deionized water were added. For those wells that were to contain drugs, 50 μl of drugs at concentration of 125 μg ml^−1 were added. Then 200 μl of bacteria suspension in sterile seawater, whose absorbance had been adjusted to 0.6 at 600 nm using a spectrophotometer (Beckman), were added. Blanks contained 200 μl of sterile seawater.
The bacteria in suspension were allowed to attach for 2 hours at 28° C. Unattached cells were removed by pipetting out almost all trace of liquid and rinsed three times with 300 μl of sterile seawater each time. The attached cells were stained with 200 μl of crystal violet solution (0.1% w/v) in each well for 5 min. After removing the stain by pipetting, the wells were rinsed twice with 300 μl of sterile deionized water each time. Sodium desoxycholate (200 μl) solution (2% w/v) was then added to each well to extract the crystal violet from the stained cells for 10 min. The absorbance of the extracted solution was read at 590 nm using a microplate reader (Sunrise, Tecan, Switzerland).
The data were analyzed using T-test (Two-sample assuming unequal variances) to determine the significance of the absorbance values of each bacterial strain versus the blanks to determine whether there was adhesion, i.e. increase in absorbance. Each drug effect on adhesion was analyzed by comparing the absorbance of each bacterial strain minus the control blank versus bacteria in presence of drug minus the drug control. When the data is significant, there are bacterial cells attached to the surface in the control but in the presence of drugs, there is no attachment.

[3] = test system: marine bacteria (ten strains); experiment: Bacteriostatic vs bacteriocidal activity from growth assay: absorbance and CFU counts; settings: 50 μg ml^−1
Experimental: Bacteria strains (1, 4, 9, 14, 18, 20, 27, 28, 29, 30) representing a variety of morphological types were used.
For each well, […] of a 100 μg ml^−1 drug solution in sterile distilled water, was added to 45 μl of Marine Broth. Controls for growth consisted of 50 μl of sterile deionized water and 45 μl of marine broth. All wells used for growth studies were prepared in triplicate and inoculated with 5 μl of the bacterial suspension. Blanks consisting of the above volumes of pharmaceutical with Marine Broth and distilled water, were prepared in triplicate and inoculated with 5 μl of sterile seawater. Immediately after adding all the components to the wells for the growth studies, 10 μl was removed and used to inoculate plates of Marine Agar to determine colony-forming units (CFU). The absorbance (A600) of each well was read in the plate reader immediately.
The inoculated plates of Marine Agar were incubated overnight on a rotary shaker (150 rpm) at 30° C. inside a moistened airtight container. After incubation, the absorbance was read again and another 10 μl was removed and used to inoculate Marine Agar plates to determine CFU.
The difference in absorbance over 24 hours for each bacterial strain versus controls and treatments were plotted in FIGS. 3 to 6 for each of the four drugs. The data was analyzed using 1-tailed t-test.

CN1CCN(CCCN2c3ccccc3Sc3ccc(C(F)(F)F)cc32)CC1 [TFZ, Trifluoperazine hydrochloride]
Number of strains inhibited out of 26 strains ([1]; 25 μg per disc): 22 | Strains showing no inhibition (of 26) ([1]; 50 μg per disc): 2 | Antibiotic activity against marine bacteria ([1]; 25 or 50 μg per disc, in words): strongest activity | Antibiotic activity against marine bacteria ([1]; crude rank, best (1) to worst (8)): 3 | zone of inhibition at 25 µg/disc ([1]; strain 1 (Rhodovulum), 25 μg per disc): < 5 mm | zone of inhibition at 50 µg/disc ([1]; strain 1 (Rhodovulum), 50 μg per disc): < 5 mm | zone of inhibition at 25 µg/disc ([1]; strain 2 (Erythrobacter), 25 μg per disc): < 5 mm | zone of inhibition at 50 µg/disc ([1]; strain 2 (Erythrobacter), 50 μg per disc): 10 to 19 mm | zone of inhibition at 25 µg/disc ([1]; strain 3 (Erythrobacter), 25 μg per disc): 10 to 19 mm | zone of inhibition at 50 µg/disc ([1]; strain 3 (Erythrobacter), 50 μg per disc): 10 to 19 mm | zone of inhibition at 25 µg/disc ([1]; strain 4 (Bacillus), 25 μg per disc): 10 to 19 mm | zone of inhibition at 50 µg/disc ([1]; strain 4 (Bacillus), 50 μg per disc): 10 to 19 mm | zone of inhibition at 25 µg/disc ([1]; strain 6 (Vibrio), 25 μg per disc): 5 to 9 mm | zone of inhibition at 50 µg/disc ([1]; strain 6 (Vibrio), 50 μg per disc): 5 to 9 mm | zone of inhibition at 25 µg/disc ([1]; strain 7 (Vibrio), 25 μg per disc): < 5 mm | zone of inhibition at 50 µg/disc ([1]; strain 7 (Vibrio), 50 μg per disc): 5 to 9 mm | zone of inhibition at 25 µg/disc ([1]; strain 8 (Bacillus), 25 μg per disc): 5 to 9 mm | zone of inhibition at 50 µg/disc ([1]; strain 8 (Bacillus), 50 μg per disc): 10 to 19 mm | zone of inhibition at 25 µg/disc ([1]; strain 9 (Bacillus), 25 μg per disc): 10 to 19 mm | zone of inhibition at 50 µg/disc ([1]; strain 9 (Bacillus), 50 μg per disc): 10 to 19 mm | zone of inhibition at 25 µg/disc ([1]; strain 10 (Halobacillus), 25 μg per disc): 10 to 19 mm | zone of inhibition at 50 µg/disc ([1]; strain 10 (Halobacillus), 50 μg per disc): 10 to 19 mm | zone of inhibition at 25 µg/disc ([1]; strain 11 (Pseudomonas), 25 μg per disc): 10 to 19 mm | zone of inhibition at 50 µg/disc ([1]; strain 11 (Pseudomonas), 50 μg per disc): 10 to 19 mm | zone of inhibition at 25 µg/disc ([1]; strain 12 (Gordonia), 25 μg per disc): 10 to 19 mm | zone of inhibition at 50 µg/disc ([1]; strain 12 (Gordonia), 50 μg per disc): 10 to 19 mm | zone of inhibition at 25 µg/disc ([1]; strain 13 (Bacillus), 25 μg per disc): 10 to 19 mm | zone of inhibition at 50 µg/disc ([1]; strain 13 (Bacillus), 50 μg per disc): 10 to 19 mm | zone of inhibition at 25 µg/disc ([1]; strain 14 (Vibrio), 25 μg per disc): < 5 mm | zone of inhibition at 50 µg/disc ([1]; strain 14 (Vibrio), 50 μg per disc): < 5 mm | zone of inhibition at 25 µg/disc ([1]; strain 16 (Pseudoalteromonas), 25 μg per disc): 5 to 9 mm | zone of inhibition at 50 µg/disc ([1]; strain 16 (Pseudoalteromonas), 50 μg per disc): 10 to 19 mm | zone of inhibition at 25 µg/disc ([1]; strain 17 (Gordonia), 25 μg per disc): 5 to 9 mm | zone of inhibition at 50 µg/disc ([1]; strain 17 (Gordonia), 50 μg per disc): 10 to 19 mm | zone of inhibition at 25 µg/disc ([1]; strain 18 (Microbacterium), 25 μg per disc): 10 to 19 mm | zone of inhibition at 50 µg/disc ([1]; strain 18 (Microbacterium), 50 μg per disc): 10 to 19 mm | zone of inhibition at 25 µg/disc ([1]; strain 19 (Erythrobacter), 25 μg per disc): 10 to 19 mm | zone of inhibition at 50 µg/disc ([1]; strain 19 (Erythrobacter), 50 μg per disc): 10 to 19 mm | zone of inhibition at 25 µg/disc ([1]; strain 20, 25 μg per disc): 10 to 19 mm | zone of inhibition at 50 µg/disc ([1]; strain 20, 50 μg per disc): 20 to 29 mm | zone of inhibition at 25 µg/disc ([1]; strain 21, 25 μg per disc): 5 to 9 mm | zone of inhibition at 50 µg/disc ([1]; strain 21, 50 μg per disc): 5 to 9 mm | zone of inhibition at 25 µg/disc ([1]; strain 22, 25 μg per disc): 10 to 19 mm | zone of inhibition at 50 µg/disc ([1]; strain 22, 50 μg per disc): 20 to 29 mm | zone of inhibition at 25 µg/disc ([1]; strain 24, 25 μg per disc): 10 to 19 mm | zone of inhibition at 50 µg/disc ([1]; strain 24, 50 μg per disc): 10 to 19 mm | zone of inhibition at 25 µg/disc ([1]; strain 26, 25 μg per disc): 5 to 9 mm | zone of inhibition at 50 µg/disc ([1]; strain 26, 50 μg per disc): 10 to 19 mm | zone of inhibition at 25 µg/disc ([1]; strain 27, 25 μg per disc): 10 to 19 mm | zone of inhibition at 50 µg/disc ([1]; strain 27, 50 μg per disc): 10 to 19 mm | zone of inhibition at 25 µg/disc ([1]; strain 28, 25 μg per disc): 5 to 9 mm | zone of inhibition at 50 µg/disc ([1]; strain 28, 50 μg per disc): 10 to 19 mm | zone of inhibition at 25 µg/disc ([1]; strain 29, 25 μg per disc): 10 to 19 mm | zone of inhibition at 50 µg/disc ([1]; strain 29, 50 μg per disc): 10 to 19 mm | zone of inhibition at 25 µg/disc ([1]; strain 30, 25 μg per disc): 10 to 19 mm | zone of inhibition at 50 µg/disc ([1]; strain 30, 50 μg per disc): 10 to 19 mm | Effect of drugs on adhesion of bacteria ([2]; strain 4 (Bacillus), hydrophilic surface (tissue culture treated polystyrene)): * (Significantly less adhesion observed: * p < 0.05) | Effect of drugs on adhesion of bacteria ([2]; strain 4 (Bacillus), hydrophobic surface (untreated polystyrene)): *** (*** p < 0.005) | Effect of drugs on adhesion of bacteria ([2]; strain 9 (Bacillus), hydrophobic surface (untreated polystyrene)): ** (** p < 0.01) | Effect of drugs on adhesion of bacteria ([2]; strain 18 (Microbacterium), hydrophilic surface (tissue culture treated polystyrene)): * (Significantly less adhesion observed: * p < 0.05) | Effect of drugs on adhesion of bacteria ([2]; strain 27, hydrophobic surface (untreated polystyrene)): *** (*** p < 0.005) | Killing of bacteria (decrease in absorbance and CFU counts) [3]: strain 14 was not killed | Growth assay: 24-hour change in absorbance for ten strains ([3]; strains 1, 4, 9, 14, 18, 20, 27, 28, 29, 30): only strain numbers 1 and 14 grew in the presence of TFZ | Change in CFU count after 24 hours ([3]; strain 1 (Rhodovulum)): 0 | Inhibition of bacterial growth ([3]; strain 1 (Rhodovulum)): 0 | Result (bacteriostatic / bacteriocidal / no effect) ([3]; strain 1 (Rhodovulum)): no effect | Inhibition of bacterial growth ([3]; strain 4 (Bacillus)): +++ (+++ denotes little or no growth, p < 0.001) | Result (bacteriostatic / bacteriocidal / no effect) ([3]; strain 4 (Bacillus)): bacteriocidal | Inhibition of bacterial growth ([3]; strain 9 (Bacillus)): +++ (+++ denotes little or no growth, p < 0.001) | Result (bacteriostatic / bacteriocidal / no effect) ([3]; strain 9 (Bacillus)): bacteriocidal | Change in CFU count after 24 hours ([3]; strain 14 (Vibrio)): 0 | Inhibition of bacterial growth ([3]; strain 14 (Vibrio)): 0 | Result (bacteriostatic / bacteriocidal / no effect) ([3]; strain 14 (Vibrio)): no effect | Inhibition of bacterial growth ([3]; strain 18 (Microbacterium)): +++ (+++ denotes little or no growth, p < 0.001) | Result (bacteriostatic / bacteriocidal / no effect) ([3]; strain 18 (Microbacterium)): bacteriostatic | Inhibition of bacterial growth ([3]; strain 20): +++ (+++ denotes little or no growth, p < 0.001) | Result (bacteriostatic / bacteriocidal / no effect) ([3]; strain 20): bacteriostatic | Inhibition of bacterial growth ([3]; strain 27): +++ (+++ denotes little or no growth, p < 0.001) | Result (bacteriostatic / bacteriocidal / no effect) ([3]; strain 27): bacteriocidal | Inhibition of bacterial growth ([3]; strain 28): +++ (+++ denotes little or no growth, p < 0.001) | Result (bacteriostatic / bacteriocidal / no effect) ([3]; strain 28): bacteriostatic | Inhibition of bacterial growth ([3]; strain 29): +++ (+++ denotes little or no growth, p < 0.001) | Result (bacteriostatic / bacteriocidal / no effect) ([3]; strain 29): bacteriocidal | Inhibition of bacterial growth ([3]; strain 30): +++ (+++ denotes little or no growth, p < 0.001) | Result (bacteriostatic / bacteriocidal / no effect) ([3]; strain 30): bacteriostatic
